This is an account of results in patent publication US9714254B2, “Anilino podophyllin derivative having antitumor activity, method for preparation thereof, and use thereof” (HUBEI UNIVERSITY OF TECHNOLOGY, priority 2013, dated 2017).

The subject of data set [1] is A549 cell line. In words: MTT test of inhibiting tumor cell activity, A549. As to conditions: read-out: Cytotoxic activity (IC50, μM) A549. In general terms: Formazan colour is commonly taken as a measure of viable cells.
Method: (§1) 3, cell lines: Hela, BGC823, A549 cell line and normal human hepatocytes which are available from Wu Han boster Co., Ltd.;
(§2) Hela, BGC823, A549 cell line and normal human hepatocytes in logarithmic growth phase are subjected to 1000 rpm centrifugation for 5 min, supernatant is then discarded, moderate medium is suspended, the cell concentration is adjusted to 3.5×10^4/well, the cells were seeded in 96-wells culture plate, and following experimental groups are set:
(§3) a negative control group; 22 test groups with same concentration (ie: groups of Compound (1) to Compound (22)); 2 control groups: groups of podophyllotoxin, 4′-demethylepipodophyllotoxin and etoposide.
(§4) Taking RPMI1640 containing 10% of calf serum as nutrient solution, 0.10 mL of cells per well is incubated under conditions of 37 V, 5% CO2 and saturated humidity for 24 h to nearly be covered, then the nutrient solution is discarded. […] 100 μl of DMSO is added to each well, then vibrated at 37° C. by shaker table for 30 min, then measuring absorbance (OD) at 492 nm, calculating MTT ratio=OD value of drug group/OD value of the negative control group.
For data set [2], the system named is BGC823 cell line. Kind of data set: MTT test of inhibiting tumor cell activity, BGC823. The settings on record: read-out: Cytotoxic activity (IC50, μM) BGC823.
Method: as §1, §2, §3, §4
Data set [3] concerns Hela cell line. In words: MTT test of inhibiting tumor cell activity, Hela. The settings on record: read-out: Cytotoxic activity (IC50, μM) Hela.
Method: as §1, §2, §3, §4
The subject of data set [4] is A549 cell line.
Method: as §1, §2, §3, §4
The subject of data set [5] is BGC823 cell line.
Method: as §1, §2, §3, §4
For data set [6], the system named is Hela cell line.
Method: as §1, §2, §3, §4
[7] abbreviates: A549 cells, MTT, 48 h cultivation.
Setting [8] is: BGC823 cells, MTT, 48 h cultivation.
[9] abbreviates: Hela cells, MTT, 48 h cultivation.

Like-named read-outs stand apart in the source and are kept apart here.

One may read the IC50 as the concentration that inhibits the measured activity by half. Regarding “4-N—(N,N-dimethylamino metanil)-4-deoxy-podophyllotoxin [Compound 15]”, the results for the IC50 in data set [1] (setting [7]), in data set [2] (setting [8]) and in data set [3] (setting [9]) were more than 100 µM, 2.59 ± 0.21 µM and 1.33 ± 0.2 µM, respectively.
In the same order, the values of `COc1cc(C2c3cc4c(cc3C(O)C3COC(=O)C23)OCO4)cc(OC)c1O` (stereo not drawn) [4′-demethylepipodophyllotoxin, reference compound] are 52 µM, 63 µM and 49 µM.
For `COc1cc(C2c3cc4c(cc3C(Nc3ccc(Cl)c(C)c3)C3COC(=O)C23)OCO4)cc(OC)c1OC` (stereo not drawn) [Compound 1, 4-N-(4-chloro-3-methylaniline)-4-deoxy-podophyllotoxin], the IC50 in data set [4] is 1.75 ± 0.83 µM; in data set [5], 0.62 ± 0.13 µM; in data set [6], 1.26 ± 0.37 µM.
`COc1ccc(NC2c3cc4c(cc3C(c3cc(OC)c(OC)c(OC)c3)C3C(=O)OCC23)OCO4)cc1F` (stereo not drawn) [Compound 3, 4-N-(3-fluoro-4-methoxyaniline)-4-deoxy-podophyllotoxin]: the IC50 in data set [1] (setting [7]) is 1.97 ± 0.32 µM; in data set [2] (setting [8]), 3.16 ± 1.11 µM; in data set [3] (setting [9]), 2.57 ± 0.87 µM.
The like results for `COc1ccc(NC2c3cc4c(cc3C(c3cc(OC)c(O)c(OC)c3)C3C(=O)OCC23)OCO4)cc1F` (stereo not drawn) [Compound 4, 4-N-(3-fluoro-4-methoxyaniline)-4-deoxy-4′-demethylepipodophyllotoxin] were, in that order, 3.04 ± 0.23 µM, 0.4 ± 0.17 µM and 1.97 ± 0.16 µM.
As for `COc1cc(C2c3cc4c(cc3C(Nc3ccc(Cc5ccc(N)cc5)cc3)C3COC(=O)C23)OCO4)cc(OC)c1OC` (stereo not drawn) [Compound 5, 4-N-(4,4′-diaminodiphenylmethane)-4-deoxy-podophyllotoxin], the IC50 in data set [1] (setting [7]) amounted to 2.32 ± 0.06 µM; in data set [2] (setting [8]) it was 17.2 ± 0.34 µM; in data set [3] (setting [9]), 7.07 ± 1.63 µM.
The like results for `COc1cc(C2c3cc4c(cc3C(Nc3ccc(Cc5ccc(N)cc5)cc3)C3COC(=O)C23)OCO4)cc(OC)c1O` (stereo not drawn) [Compound 6, 4-N-(4,4′-diaminodiphenylmethane)-4-deoxy-4′-demethylepipodophyllotoxin] were, in that order, 2.2 ± 0.25 µM, 3.52 ± 0.43 µM and 0.56 ± 0.17 µM.
In the same order, the values of `COc1ccccc1NC1c2cc3c(cc2C(c2cc(OC)c(OC)c(OC)c2)C2C(=O)OCC12)OCO3` (stereo not drawn) [Compound 7, 4-N-(o-aminoanisole)-4-deoxy-podophyllotoxin] are 3.41 ± 0.1 µM, 6.26 ± 0.36 µM and 13.4 ± 3.31 µM.
In the same order, the values of `COc1ccccc1NC1c2cc3c(cc2C(c2cc(OC)c(O)c(OC)c2)C2C(=O)OCC12)OCO3` (stereo not drawn) [Compound 8, 4-N-(o-aminoanisole)-4-deoxy-4′-demethylepipodophyllotoxin] are 15.3 ± 0.45 µM, 5.63 ± 1.2 µM and 1.72 ± 0.3 µM.
Regarding `COc1ccc(Cl)cc1NC1c2cc3c(cc2C(c2cc(OC)c(OC)c(OC)c2)C2C(=O)OCC12)OCO3` (stereo not drawn) [Compound 9, 4-N-(4-chloro-2-aminoanisole)-4-deoxy-podophyllotoxin], the values for the IC50 in data set [1] (setting [7]), in data set [2] (setting [8]) and in data set [3] (setting [9]) were 1.71 ± 0.26 µM, 1.24 ± 0.06 µM and 8.07 ± 1.81 µM, respectively.
For the compound `COc1ccc(Cl)cc1NC1c2cc3c(cc2C(c2cc(OC)c(O)c(OC)c2)C2C(=O)OCC12)OCO3` (stereo not drawn) [Compound 10, 4-N-(4-chloro-2-aminoanisole)-4-deoxy-4′-demethylepipodophyllotoxin], the IC50 in data set [1] (setting [7]) came out at 3.72 ± 0.41 µM; in data set [2] (setting [8]), 1.61 ± 0.37 µM; in data set [3] (setting [9]) it was 1.35 ± 0.18 µM.
As for `COc1cc(C2c3cc4c(cc3C(Nc3ccccc3C#N)C3COC(=O)C23)OCO4)cc(OC)c1OC` (stereo not drawn) [Compound 11, 4-N-(o-aminobenzonitrile)-4-deoxy-podophyllotoxin], the IC50 in data set [1] (setting [7]) is 1.02 ± 0.07 µM; in data set [2] (setting [8]), more than 100 µM; in data set [3] (setting [9]), 16.9 ± 1.48 µM.
As to `COc1cc(C2c3cc4c(cc3C(Nc3ccccc3C#N)C3COC(=O)C23)OCO4)cc(OC)c1O` (stereo not drawn) [Compound 12, 4-N-(o-aminobenzonitrile)-4-deoxy-4′-demethylepipodophyllotoxin], the values for the IC50 in data set [1] (setting [7]), in data set [2] (setting [8]) and in data set [3] (setting [9]) were 11.6 ± 1.63 µM, 7.91 ± 0.59 µM and 1.92 ± 1.21 µM, respectively.
Turning to `COc1cc(C2c3cc4c(cc3C(Nc3cc(Cl)c(O)c(Cl)c3)C3COC(=O)C23)OCO4)cc(OC)c1OC` (stereo not drawn) [Compound 13, 4-N-(2,6-dichloro-4-aminophenol)-4-deoxy-podophyllotoxin], the results for the IC50 in data set [1] (setting [7]), in data set [2] (setting [8]) and in data set [3] (setting [9]) were 9.66 ± 0.35 µM, 1.58 ± 0.16 µM and 17.6 ± 2.39 µM, respectively.
In the same order, the values of `COc1cc(C2c3cc4c(cc3C(Nc3cc(Cl)c(O)c(Cl)c3)C3COC(=O)C23)OCO4)cc(OC)c1O` (stereo not drawn) [Compound 14, 4-N-(2,6-dichloro-4-aminophenol)-4-deoxy-4′-demethylepipodophyllotoxin] are 9.41 ± 0.59 µM, 13.8 ± 1.42 µM and 14.7 ± 0.42 µM.
The like results for `COc1cc(C2c3cc4c(cc3C(Nc3cccc(S(=O)(=O)N(C)C)c3)C3COC(=O)C23)OCO4)cc(OC)c1O` (stereo not drawn) [Compound 16, 4-N—(N,N-dimethylaminometanil)-4-deoxy-4′-demethylepipodophyllotoxin] were, in that order, 2.08 ± 0.26 µM, 1.52 ± 0.39 µM and 1.06 ± 0.57 µM.
In the same order, the values of `CCc1ccc([N+](=O)[O-])cc1NC1c2cc3c(cc2C(c2cc(OC)c(OC)c(OC)c2)C2C(=O)OCC12)OCO3` (stereo not drawn) [Compound 17, 4-N-(2-ethyl-5-nitroaniline)-4-deoxy-podophyllotoxin] are 1.4 ± 0.28 µM, 4.24 ± 0.79 µM and 6.01 ± 0.71 µM.
`COc1cc(C2c3cc4c(cc3C(Nc3ccccc3Sc3ccccc3N)C3COC(=O)C23)OCO4)cc(OC)c1OC` (stereo not drawn) [Compound 19, 4-N-(2 2′-diaminodiphenylsulfide)-4-deoxy-podophyllotoxin]: the values for the IC50 in data set [1] (setting [7]), in data set [2] (setting [8]) and in data set [3] (setting [9]) were 23.2 ± 0.72 µM, 6.46 ± 0.33 µM and 2.14 ± 0.21 µM, respectively.
With `COc1cc(C2c3cc4c(cc3C(Nc3ccccc3Sc3ccccc3N)C3COC(=O)C23)OCO4)cc(OC)c1O` (stereo not drawn) [Compound 20, 4-N-(2 2′-diaminodiphenylsulfide)-4-deoxy-4′-demethylepipodophyllotoxin], the IC50 in data set [1] (setting [7]) is 1.42 ± 0.12 µM; in data set [2] (setting [8]), 2.17 ± 0.23 µM; in data set [3] (setting [9]), 16.3 ± 0.39 µM.
Turning to `COc1cc(C2c3cc4c(cc3C(Nc3ccccc3C(F)(F)F)C3COC(=O)C23)OCO4)cc(OC)c1OC` (stereo not drawn) [Compound 21, 4-N-(2-aminobenzotrifluoride)-4-deoxy-podophyllotoxin], the IC50 in data set [1] (setting [7]) is 2.11 ± 0.05 µM; in data set [2] (setting [8]) it was 23.2 ± 0.76 µM; in data set [3] (setting [9]), 2.45 ± 3.04 µM.
In the same order, the values of `COc1cc(C2c3cc4c(cc3C(Nc3ccccc3C(F)(F)F)C3COC(=O)C23)OCO4)cc(OC)c1O` (stereo not drawn) [Compound 22, 4-N-(2-aminobenzotrifluoride)-4-deoxy-4′-demethylepipodophyllotoxin] are 9.72 ± 0.98 µM, 6.01 ± 0.12 µM and 5.89 ± 0.48 µM.
Regarding `COc1cc([C@@H]2c3cc4c(cc3[C@@H](O[C@@H]3O[C@@H]5CO[C@@H](C)O[C@H]5[C@H](O)[C@H]3O)[C@H]3COC(=O)[C@H]23)OCO4)cc(OC)c1O` [VP-16, etoposide, reference compound], the IC50 in data set [1] (setting [7]) turned out to be 31.1 ± 1.72 µM; in data set [2] (setting [8]) it was 22.3 ± 2.97 µM; in data set [3] (setting [9]) it was 13.2 ± 1.65 µM.
Turning to `COc1cc([C@@H]2c3cc4c(cc3[C@H](O)[C@H]3COC(=O)[C@H]23)OCO4)cc(OC)c1OC` [podophyllotoxin, reference compound], the IC50 was 67 µM in data set [1] (Homo sapiens, A549, 48 h); 75 µM in data set [2] (Homo sapiens, BGC-823, 48 h); 55 µM in data set [3] (Homo sapiens, HeLa, 48 h).
